Here are results for four molecules from patent US7503967B2, “Azo compound, ink composition and colored article” (Nippon Kayaku Kabushiki Kaisha, priority 2004, dated 2009).

This series can be described thus: solubility in water of the azo compound. The conditions noted are these: mixed salt of lithium and sodium. It counts as physicochemical.
A word on the solubility: it is how much of the substance goes into solution per volume. Regarding `Nc1c(N=Nc2ccc3c(O)c(N=Nc4ccc(N=Nc5ccc(S(=O)(=O)O)cc5)cc4S(=O)(=O)O)c(S(=O)(=O)O)cc3c2S(=O)(=O)O)cc(S(=O)(=O)O)c2cc(S(=O)(=O)O)c(N=Nc3ccc([N+](=O)[O-])cc3S(=O)(=O)O)c(O)c12` [compound 1], the solubility was not below 100 mg/mL.

In the case of `Nc1c(N=Nc2ccc3c(O)c(N=Nc4ccc(N=Nc5ccc(S(=O)(=O)O)cc5)cc4S(=O)(=O)O)c(S(=O)(=O)O)cc3c2S(=O)(=O)O)cc(S(=O)(=O)O)c2cc(S(=O)(=O)O)c(N=Nc3ccc(S(=O)(=O)O)cc3[N+](=O)[O-])c(O)c12` [compound 3], the solubility is not below 100 mg/mL. Consider `Cc1cc(N=Nc2c(S(=O)(=O)O)cc3c(S(=O)(=O)O)c(N=Nc4cc(S(=O)(=O)O)c5cc(S(=O)(=O)O)c(N=Nc6ccc([N+](=O)[O-])cc6S(=O)(=O)O)c(O)c5c4N)ccc3c2O)c(OCCCS(=O)(=O)O)cc1N=Nc1ccc([N+](=O)[O-])cc1S(=O)(=O)O` [compound 16], for which the solubility is not below 100 mg/mL. Take `Cc1cc(N=Nc2c(S(=O)(=O)O)cc3c(S(=O)(=O)O)c(N=Nc4cc(S(=O)(=O)O)c5cc(S(=O)(=O)O)c(N=Nc6ccc([N+](=O)[O-])cc6S(=O)(=O)O)c(O)c5c4N)ccc3c2O)c(OCCCS(=O)(=O)O)cc1N=Nc1ccc(S(=O)(=O)O)cc1C(=O)O` [compound 21]: the solubility was not below 100 mg/mL.
